According to ChEMBL document CHEMBL5465560, “Selectivity Literature for EUbOPEN Chemogenomic Library” (2024):

Legend:
[1] = molecular target: T1, Serine/threonine-protein kinase tousled-like 1 (Homo sapiens) (UniProt Q9UKI8); assay: Selectivity interaction (KinomeScan (DiscoverX)) EUB0001079a TLK1; conditions: at 1 µM
T1 sequence (whole entry): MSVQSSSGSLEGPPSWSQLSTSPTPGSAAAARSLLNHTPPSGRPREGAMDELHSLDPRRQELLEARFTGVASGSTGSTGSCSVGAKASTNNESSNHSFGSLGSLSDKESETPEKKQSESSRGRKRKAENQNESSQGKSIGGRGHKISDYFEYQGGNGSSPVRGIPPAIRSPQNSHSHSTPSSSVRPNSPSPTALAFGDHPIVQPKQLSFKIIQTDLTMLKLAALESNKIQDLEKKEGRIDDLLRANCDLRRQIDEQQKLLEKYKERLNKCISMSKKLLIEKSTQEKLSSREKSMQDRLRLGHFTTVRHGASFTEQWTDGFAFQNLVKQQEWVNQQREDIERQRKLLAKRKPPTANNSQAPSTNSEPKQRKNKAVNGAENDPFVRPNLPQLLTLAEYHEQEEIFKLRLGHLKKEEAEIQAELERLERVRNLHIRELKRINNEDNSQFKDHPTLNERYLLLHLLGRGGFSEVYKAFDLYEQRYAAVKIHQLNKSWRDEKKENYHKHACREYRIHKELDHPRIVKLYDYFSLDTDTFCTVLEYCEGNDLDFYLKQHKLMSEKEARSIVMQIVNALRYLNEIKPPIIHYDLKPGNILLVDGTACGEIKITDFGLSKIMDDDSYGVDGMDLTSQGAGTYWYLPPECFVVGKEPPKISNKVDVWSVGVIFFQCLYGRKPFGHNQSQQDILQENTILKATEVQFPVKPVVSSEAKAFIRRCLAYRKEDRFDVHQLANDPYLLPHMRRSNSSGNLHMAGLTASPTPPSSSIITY

[2] = molecular target: Interferon-induced, double-stranded RNA-activated protein kinase (Homo sapiens) (UniProt P19525); assay: Selectivity interaction (LanthaScreen Eu Kinase Binding Assay) EUB0001632a EIF2AK2; conditions: at 10 µM
[3] = molecular target: Serine/threonine-protein kinase PAK 6 (Homo sapiens) (UniProt Q9NQU5); conditions: at 10 µM
[4] = molecular target: Protein kinase C beta type (Homo sapiens, UniProt P05771); assay: Selectivity interaction (Kinase screening (Nanosyn)) EUB0000604a PRKCB
[5] = molecular target: T2, Mitogen-activated protein kinase 15 (Homo sapiens) (UniProt Q8TD08); assay: Selectivity interaction (KinomeScan (DiscoverX)) EUB0001049a MAPK15; conditions: at 1 µM
T2 sequence (whole entry): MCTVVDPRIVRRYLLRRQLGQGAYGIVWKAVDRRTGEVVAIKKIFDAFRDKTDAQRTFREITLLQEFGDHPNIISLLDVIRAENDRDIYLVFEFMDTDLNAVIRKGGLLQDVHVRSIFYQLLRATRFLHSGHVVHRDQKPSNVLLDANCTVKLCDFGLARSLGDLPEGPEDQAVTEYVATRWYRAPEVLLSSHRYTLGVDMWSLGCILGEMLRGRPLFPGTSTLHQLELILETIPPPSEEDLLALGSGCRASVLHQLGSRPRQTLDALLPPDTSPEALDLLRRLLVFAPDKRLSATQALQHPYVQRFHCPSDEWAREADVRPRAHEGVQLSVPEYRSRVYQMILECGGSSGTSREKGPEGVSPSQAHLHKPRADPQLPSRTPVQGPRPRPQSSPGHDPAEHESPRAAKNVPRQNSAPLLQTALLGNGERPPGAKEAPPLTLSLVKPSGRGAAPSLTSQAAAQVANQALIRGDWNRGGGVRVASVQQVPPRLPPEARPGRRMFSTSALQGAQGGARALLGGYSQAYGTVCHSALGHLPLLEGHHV

[6] = molecular target: T3, Eukaryotic elongation factor 2 kinase (Homo sapiens) (UniProt O00418); assay: Selectivity interaction (ActivX KiNativ screen (ex vivo kinase selectivity in human PBMCs)) EUB0001619a EEF2K; format: cell-based; conditions: PBMC, at 1 µM
T3 sequence (whole entry): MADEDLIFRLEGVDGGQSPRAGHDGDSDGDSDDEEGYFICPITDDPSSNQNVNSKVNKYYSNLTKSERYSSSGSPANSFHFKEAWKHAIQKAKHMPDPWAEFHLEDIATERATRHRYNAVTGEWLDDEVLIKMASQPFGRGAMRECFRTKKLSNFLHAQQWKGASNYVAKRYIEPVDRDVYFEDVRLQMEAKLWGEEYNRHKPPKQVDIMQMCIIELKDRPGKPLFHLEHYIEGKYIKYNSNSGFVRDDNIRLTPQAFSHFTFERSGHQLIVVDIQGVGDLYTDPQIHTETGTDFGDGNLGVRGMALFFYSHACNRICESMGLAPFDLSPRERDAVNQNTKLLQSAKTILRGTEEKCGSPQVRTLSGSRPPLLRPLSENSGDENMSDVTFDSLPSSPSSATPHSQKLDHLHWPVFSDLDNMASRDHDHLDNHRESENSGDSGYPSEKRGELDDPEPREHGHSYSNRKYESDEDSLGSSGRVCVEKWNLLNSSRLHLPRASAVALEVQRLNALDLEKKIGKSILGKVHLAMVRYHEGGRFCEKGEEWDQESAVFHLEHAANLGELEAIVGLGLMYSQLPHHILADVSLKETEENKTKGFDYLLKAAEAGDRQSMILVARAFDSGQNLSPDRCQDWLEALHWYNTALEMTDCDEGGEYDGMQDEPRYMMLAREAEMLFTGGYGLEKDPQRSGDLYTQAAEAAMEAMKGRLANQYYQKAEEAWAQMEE

[7] = molecular target: T4, Membrane-associated tyrosine- and threonine-specific cdc2-inhibitory kinase (Homo sapiens) (UniProt Q99640); assay: Selectivity interaction (KinomeScan (DiscoverX)) EUB0000618a PKMYT1; conditions: at 10 µM
T4 sequence (whole entry): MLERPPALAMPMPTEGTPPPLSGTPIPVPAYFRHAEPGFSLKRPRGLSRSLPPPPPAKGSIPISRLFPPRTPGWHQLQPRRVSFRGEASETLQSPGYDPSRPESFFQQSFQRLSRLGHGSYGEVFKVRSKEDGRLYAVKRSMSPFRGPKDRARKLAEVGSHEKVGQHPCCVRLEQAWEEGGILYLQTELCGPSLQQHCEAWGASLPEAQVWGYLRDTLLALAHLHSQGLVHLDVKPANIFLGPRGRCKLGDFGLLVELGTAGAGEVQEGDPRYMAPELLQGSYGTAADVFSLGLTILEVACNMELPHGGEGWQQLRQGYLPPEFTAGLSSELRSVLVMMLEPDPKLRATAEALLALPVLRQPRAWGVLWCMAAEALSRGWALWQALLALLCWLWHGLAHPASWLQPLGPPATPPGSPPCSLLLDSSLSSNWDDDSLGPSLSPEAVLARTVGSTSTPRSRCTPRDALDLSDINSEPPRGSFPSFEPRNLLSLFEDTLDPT

[8] = molecular target: Serine/threonine-protein kinase PAK 1 (Homo sapiens) (UniProt Q13153); assay: Selectivity interaction (KinomeScan (DiscoverX)) EUB0000618a PAK1; conditions: at 10 µM
Serine/threonine-protein kinase PAK 1 (Homo sapiens), sequence (Q13153 whole entry): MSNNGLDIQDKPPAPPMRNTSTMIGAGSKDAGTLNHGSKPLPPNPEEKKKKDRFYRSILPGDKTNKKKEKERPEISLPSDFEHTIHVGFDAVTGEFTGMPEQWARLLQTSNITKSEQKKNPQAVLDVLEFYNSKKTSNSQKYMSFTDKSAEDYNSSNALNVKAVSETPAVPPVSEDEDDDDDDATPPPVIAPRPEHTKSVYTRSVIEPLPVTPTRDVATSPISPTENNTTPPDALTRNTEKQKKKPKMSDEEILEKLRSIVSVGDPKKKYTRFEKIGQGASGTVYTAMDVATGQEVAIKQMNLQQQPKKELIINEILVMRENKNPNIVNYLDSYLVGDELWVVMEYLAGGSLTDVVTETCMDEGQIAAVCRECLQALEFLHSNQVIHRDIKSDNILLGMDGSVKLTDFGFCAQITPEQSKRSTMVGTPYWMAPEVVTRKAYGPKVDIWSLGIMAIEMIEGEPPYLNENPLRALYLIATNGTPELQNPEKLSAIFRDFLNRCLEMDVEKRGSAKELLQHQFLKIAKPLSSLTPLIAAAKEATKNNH

Protein kinase C beta type, sequence (P05771 2-671 limits assumed): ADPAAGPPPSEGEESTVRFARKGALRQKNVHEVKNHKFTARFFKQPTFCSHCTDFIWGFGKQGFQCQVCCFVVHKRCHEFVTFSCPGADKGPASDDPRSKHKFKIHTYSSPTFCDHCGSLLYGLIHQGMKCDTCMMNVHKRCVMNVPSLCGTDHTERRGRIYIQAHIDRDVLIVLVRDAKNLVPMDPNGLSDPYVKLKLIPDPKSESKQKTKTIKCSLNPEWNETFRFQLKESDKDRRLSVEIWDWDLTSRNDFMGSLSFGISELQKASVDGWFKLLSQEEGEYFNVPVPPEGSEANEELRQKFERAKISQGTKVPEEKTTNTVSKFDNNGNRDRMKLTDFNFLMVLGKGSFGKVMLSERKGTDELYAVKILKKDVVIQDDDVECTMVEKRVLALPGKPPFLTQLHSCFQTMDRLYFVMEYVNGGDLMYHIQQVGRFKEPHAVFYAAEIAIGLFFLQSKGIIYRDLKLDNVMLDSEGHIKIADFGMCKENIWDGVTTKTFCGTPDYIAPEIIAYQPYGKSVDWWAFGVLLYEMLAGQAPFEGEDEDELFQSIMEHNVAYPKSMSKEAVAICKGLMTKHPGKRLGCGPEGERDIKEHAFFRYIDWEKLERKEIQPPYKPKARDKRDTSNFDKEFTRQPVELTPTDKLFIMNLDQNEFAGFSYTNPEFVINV
Interferon-induced, double-stranded RNA-activated protein kinase (Homo sapiens), sequence (P19525 whole entry): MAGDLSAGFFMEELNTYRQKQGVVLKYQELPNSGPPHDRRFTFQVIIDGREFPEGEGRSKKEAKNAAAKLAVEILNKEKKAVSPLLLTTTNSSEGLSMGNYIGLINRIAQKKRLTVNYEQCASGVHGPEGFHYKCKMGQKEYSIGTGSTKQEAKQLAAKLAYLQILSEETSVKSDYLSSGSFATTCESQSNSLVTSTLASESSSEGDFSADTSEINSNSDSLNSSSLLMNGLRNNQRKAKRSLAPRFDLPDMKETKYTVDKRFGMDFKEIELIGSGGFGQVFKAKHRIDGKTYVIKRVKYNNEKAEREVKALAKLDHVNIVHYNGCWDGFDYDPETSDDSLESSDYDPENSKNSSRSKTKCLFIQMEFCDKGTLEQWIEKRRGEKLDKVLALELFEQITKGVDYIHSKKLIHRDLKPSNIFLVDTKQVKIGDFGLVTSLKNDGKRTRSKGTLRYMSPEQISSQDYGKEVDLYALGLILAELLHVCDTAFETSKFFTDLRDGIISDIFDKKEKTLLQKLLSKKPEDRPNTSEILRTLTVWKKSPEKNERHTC
Serine/threonine-protein kinase PAK 6 (Homo sapiens), sequence (Q9NQU5 whole entry, looked up): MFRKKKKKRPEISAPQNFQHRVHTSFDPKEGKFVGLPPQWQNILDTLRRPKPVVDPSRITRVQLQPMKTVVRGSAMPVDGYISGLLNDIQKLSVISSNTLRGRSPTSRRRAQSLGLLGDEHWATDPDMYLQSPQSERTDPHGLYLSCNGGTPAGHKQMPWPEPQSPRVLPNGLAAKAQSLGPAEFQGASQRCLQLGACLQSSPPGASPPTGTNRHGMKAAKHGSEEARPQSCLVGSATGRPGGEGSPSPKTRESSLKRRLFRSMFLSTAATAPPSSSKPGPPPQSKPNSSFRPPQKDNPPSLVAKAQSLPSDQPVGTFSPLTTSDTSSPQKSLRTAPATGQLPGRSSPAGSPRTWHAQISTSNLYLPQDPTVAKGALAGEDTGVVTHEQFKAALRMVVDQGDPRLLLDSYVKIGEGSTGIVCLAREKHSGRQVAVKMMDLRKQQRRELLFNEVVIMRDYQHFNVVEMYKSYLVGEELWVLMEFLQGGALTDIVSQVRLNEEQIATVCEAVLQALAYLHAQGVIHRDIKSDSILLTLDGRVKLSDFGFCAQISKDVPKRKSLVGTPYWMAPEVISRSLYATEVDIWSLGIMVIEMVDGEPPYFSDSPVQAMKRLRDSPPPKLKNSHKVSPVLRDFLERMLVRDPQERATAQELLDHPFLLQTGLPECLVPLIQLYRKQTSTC

Nc1cnc(N2CCc3cc(S(=O)(=O)Nc4c(F)cc(Cl)cc4F)cc(N4CCCC4=O)c32)nc1 [TP-020n]
% of control [1]: 100%

Cn1cc(-n2cnc3c(NCc4nc5cc(Cl)c(Cl)cc5[nH]4)nc(N4CCOCC4)nc32)cn1
% of inhibition [2]: -80.6%

Cc1cc([C@@H](C)Nc2ccccc2C(=O)O)c2nc(N3CCOCC3)cc(=O)n2c1 [AZD-6482]
% of control [3]: 99%

Cc1cnc(Nc2ccc(F)cc2Cl)nc1-c1c[nH]c(C(=O)N[C@H](CO)c2cccc(Cl)c2)c1
% of inhibition [4]: 4%

COc1cc(Nc2nc(C)cc(-c3cnn4nc(OC)ccc34)n2)cc(C(F)(F)F)c1
% of control [5]: 96%

N#Cc1cccc(-c2c[nH]c3ncnc(N4CCOCC4)c23)c1
% of inhibition [6]: 3%

O[C@H]1CC[C@H](Nc2ncc3nc(Nc4c(F)cc(F)cc4F)n([C@H]4CCOC4)c3n2)CC1
% of control [7]: 92% | % of control [8]: 99%
